According to PubChem BioAssay AID330 (DTP/NCI, 2004):
Toxic doses and inconclusive results are not listed.

Tested on: P388 leukemia ip, CD2F1 mice, survival T/C
Assay: NCI In Vivo Anticancer Drug Screen. Data for tumor model P388 Leukemia (intraperitoneal) in CD2F1 (CDF1) mice
Conditions: endpoint: median survival time, higher = longer survival
Outline: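 Mice carrying the transplanted tumor received test compound or vehicle. Survival was recorded in each group, and the value is the treated-group measurement divided by that of the vehicle-treated control group.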

Structure (SMILES): O=C1NC(c2cccc3ccccc23)Nc2ccccc21 (configuration not stated)
- T/C (dose: 8.0 mg/kg/injection, schedule: Q03HX008 (ip), vehicle: Klucel (hydroxypropylcellulose) (HPC)): 118 % of control
- T/C (dose: 8.0 mg/kg/injection, schedule: Q03HX008 (ip), vehicle: other): 109 % of control
- T/C (dose: 8.0 mg/kg/injection, schedule: Q03HX008 (oral), vehicle: Klucel (hydroxypropylcellulose) (HPC)): 99 % of control
- T/C (dose: 8.0 mg/kg/injection, schedule: Q03HX008 (oral), vehicle: other): 100 % of control
- T/C (dose: 8.0 mg/kg/injection, schedule: Q03HX016 (ip), vehicle: Klucel (hydroxypropylcellulose) (HPC)): 124 % of control
- T/C (dose: 8.0 mg/kg/injection, schedule: Q03HX016 (ip), vehicle: other): 101 % of control
- T/C (dose: 8.0 mg/kg/injection, schedule: Q03HX016 (oral), vehicle: Klucel (hydroxypropylcellulose) (HPC)): 100 % of control
- T/C (dose: 8.0 mg/kg/injection, schedule: Q03HX016 (oral), vehicle: other): 114 % of control
- T/C (dose: 8.0 mg/kg/injection, schedule: Q03HX024 (ip), vehicle: other): 124 % of control
- T/C (dose: 8.0 mg/kg/injection, schedule: Q03HX024 (oral), vehicle: Klucel (hydroxypropylcellulose) (HPC)): 101 % of control
- T/C (dose: 8.0 mg/kg/injection, schedule: Q03HX024 (oral), vehicle: other): 108 % of control
- T/C (dose: 16.0 mg/kg/injection, schedule: Q01DX009 (ip), vehicle: Klucel (hydroxypropylcellulose) (HPC)): 155 % of control
- T/C (dose: 16.0 mg/kg/injection, schedule: Q01DX009 (ip), vehicle: other): 108 % of control
- T/C (dose: 16.0 mg/kg/injection, schedule: Q01DX009 (oral), vehicle: Klucel (hydroxypropylcellulose) (HPC)): 100 % of control
- T/C (dose: 16.0 mg/kg/injection, schedule: Q01DX009 (oral), vehicle: other): 100 % of control
- T/C (dose: 16.0 mg/kg/injection, schedule: Q01DX009 (sc), vehicle: Klucel (hydroxypropylcellulose) (HPC)): 106 % of control
- T/C (dose: 16.0 mg/kg/injection, schedule: Q01DX009 (sc), vehicle: other): 94 % of control
- T/C (dose: 16.0 mg/kg/injection, schedule: Q03HX008 (ip), vehicle: other): 117 % of control
- T/C (dose: 16.0 mg/kg/injection, schedule: Q03HX008 (oral), vehicle: Klucel (hydroxypropylcellulose) (HPC)): 95 % of control
- T/C (dose: 16.0 mg/kg/injection, schedule: Q03HX008 (oral), vehicle: other): 104 % of control
- T/C (dose: 16.0 mg/kg/injection, schedule: Q03HX016 (ip), vehicle: other): 123 % of control
- T/C (dose: 16.0 mg/kg/injection, schedule: Q03HX016 (oral), vehicle: Klucel (hydroxypropylcellulose) (HPC)): 102 % of control
- T/C (dose: 16.0 mg/kg/injection, schedule: Q03HX016 (oral), vehicle: other): 115 % of control
- T/C (dose: 16.0 mg/kg/injection, schedule: Q03HX024 (ip), vehicle: Klucel (hydroxypropylcellulose) (HPC)): 174 % of control
- T/C (dose: 16.0 mg/kg/injection, schedule: Q03HX024 (oral), vehicle: Klucel (hydroxypropylcellulose) (HPC)): 102 % of control
- T/C (dose: 32.0 mg/kg/injection, schedule: Q01DX009 (ip), vehicle: Klucel (hydroxypropylcellulose) (HPC)): 177 % of control
- T/C (dose: 32.0 mg/kg/injection, schedule: Q01DX009 (ip), vehicle: other): 102 % of control
- T/C (dose: 32.0 mg/kg/injection, schedule: Q01DX009 (oral), vehicle: Klucel (hydroxypropylcellulose) (HPC)): 102 % of control
- T/C (dose: 32.0 mg/kg/injection, schedule: Q01DX009 (oral), vehicle: other): 107 % of control
- T/C (dose: 32.0 mg/kg/injection, schedule: Q01DX009 (sc), vehicle: Klucel (hydroxypropylcellulose) (HPC)): 114 % of control
- T/C (dose: 32.0 mg/kg/injection, schedule: Q01DX009 (sc), vehicle: other): 117 % of control
- T/C (dose: 32.0 mg/kg/injection, schedule: Q03HX008 (ip), vehicle: Klucel (hydroxypropylcellulose) (HPC)): 173 % of control
- T/C (dose: 32.0 mg/kg/injection, schedule: Q03HX008 (oral), vehicle: Klucel (hydroxypropylcellulose) (HPC)): 99 % of control
- T/C (dose: 32.0 mg/kg/injection, schedule: Q03HX008 (oral), vehicle: other): 122 % of control
- T/C (dose: 32.0 mg/kg/injection, schedule: Q03HX016 (ip), vehicle: Klucel (hydroxypropylcellulose) (HPC)): 200 % of control
- T/C (dose: 32.0 mg/kg/injection, schedule: Q03HX016 (oral), vehicle: Klucel (hydroxypropylcellulose) (HPC)): 110 % of control
- T/C (dose: 32.0 mg/kg/injection, schedule: Q03HX024 (oral), vehicle: Klucel (hydroxypropylcellulose) (HPC)): 109 % of control
- T/C (dose: 32.0 mg/kg/injection, schedule: Q03HX024 (oral), vehicle: other): 168 % of control
- T/C (dose: 64.0 mg/kg/injection, schedule: Q01DX001 (ip), vehicle: Klucel (hydroxypropylcellulose) (HPC)): 113 % of control
- T/C (dose: 64.0 mg/kg/injection, schedule: Q01DX001 (ip), vehicle: other): 99 % of control
- T/C (dose: 64.0 mg/kg/injection, schedule: Q01DX001 (oral), vehicle: Klucel (hydroxypropylcellulose) (HPC)): 100 % of control
- T/C (dose: 64.0 mg/kg/injection, schedule: Q01DX001 (oral), vehicle: other): 94 % of control
- T/C (dose: 64.0 mg/kg/injection, schedule: Q01DX009 (ip), vehicle: Klucel (hydroxypropylcellulose) (HPC)): 194 % of control
- T/C (dose: 64.0 mg/kg/injection, schedule: Q01DX009 (ip), vehicle: other): 120 % of control
- T/C (dose: 64.0 mg/kg/injection, schedule: Q01DX009 (oral), vehicle: Klucel (hydroxypropylcellulose) (HPC)): 108 % of control
- T/C (dose: 64.0 mg/kg/injection, schedule: Q01DX009 (oral), vehicle: other): 118 % of control
- T/C (dose: 64.0 mg/kg/injection, schedule: Q03HX008 (oral), vehicle: Klucel (hydroxypropylcellulose) (HPC)): 108 % of control
- T/C (dose: 64.0 mg/kg/injection, schedule: Q03HX016 (oral), vehicle: Klucel (hydroxypropylcellulose) (HPC)): 116 % of control
- T/C (dose: 64.0 mg/kg/injection, schedule: Q03HX024 (oral), vehicle: Klucel (hydroxypropylcellulose) (HPC)): 119 % of control
- T/C (dose: 64.0 mg/kg/injection, schedule: Q04DX003 (ip), vehicle: Klucel (hydroxypropylcellulose) (HPC)): 118 % of control
- T/C (dose: 64.0 mg/kg/injection, schedule: Q04DX003 (ip), vehicle: other): 91 % of control
- T/C (dose: 64.0 mg/kg/injection, schedule: Q04DX003 (oral), vehicle: Klucel (hydroxypropylcellulose) (HPC)): 100 % of control
- T/C (dose: 64.0 mg/kg/injection, schedule: Q04DX003 (oral), vehicle: other): 117 % of control
- T/C (dose: 64.0 mg/kg/injection, schedule: Q04DX003 (sc), vehicle: Klucel (hydroxypropylcellulose) (HPC)): 113 % of control
- T/C (dose: 64.0 mg/kg/injection, schedule: Q04DX003 (sc), vehicle: other): 107 % of control
- T/C (dose: 64.0 mg/kg/injection, schedule: Q08DX002 (ip), vehicle: Klucel (hydroxypropylcellulose) (HPC)): 118 % of control
- T/C (dose: 64.0 mg/kg/injection, schedule: Q08DX002 (ip), vehicle: other): 100 % of control
- T/C (dose: 64.0 mg/kg/injection, schedule: Q08DX002 (oral), vehicle: Klucel (hydroxypropylcellulose) (HPC)): 102 % of control
- T/C (dose: 64.0 mg/kg/injection, schedule: Q08DX002 (oral), vehicle: other): 104 % of control
- T/C (dose: 128.0 mg/kg/injection, schedule: Q01DX001 (ip), vehicle: Klucel (hydroxypropylcellulose) (HPC)): 121 % of control
- T/C (dose: 128.0 mg/kg/injection, schedule: Q01DX001 (ip), vehicle: other): 104 % of control
- T/C (dose: 128.0 mg/kg/injection, schedule: Q01DX001 (oral), vehicle: Klucel (hydroxypropylcellulose) (HPC)): 99 % of control
- T/C (dose: 128.0 mg/kg/injection, schedule: Q01DX001 (oral), vehicle: other): 108 % of control
- T/C (dose: 128.0 mg/kg/injection, schedule: Q01DX009 (oral), vehicle: Klucel (hydroxypropylcellulose) (HPC)): 109 % of control
- T/C (dose: 128.0 mg/kg/injection, schedule: Q03HX008 (oral), vehicle: Klucel (hydroxypropylcellulose) (HPC)): 110 % of control
- T/C (dose: 128.0 mg/kg/injection, schedule: Q03HX016 (oral), vehicle: Klucel (hydroxypropylcellulose) (HPC)): 122 % of control
- T/C (dose: 128.0 mg/kg/injection, schedule: Q04DX003 (ip), vehicle: other): 109 % of control
- T/C (dose: 128.0 mg/kg/injection, schedule: Q04DX003 (oral), vehicle: Klucel (hydroxypropylcellulose) (HPC)): 105 % of control
- T/C (dose: 128.0 mg/kg/injection, schedule: Q04DX003 (oral), vehicle: other): 122 % of control
- T/C (dose: 128.0 mg/kg/injection, schedule: Q04DX003 (sc), vehicle: Klucel (hydroxypropylcellulose) (HPC)): 115 % of control
- T/C (dose: 128.0 mg/kg/injection, schedule: Q04DX003 (sc), vehicle: other): 114 % of control
- T/C (dose: 128.0 mg/kg/injection, schedule: Q08DX002 (ip), vehicle: other): 94 % of control
- T/C (dose: 128.0 mg/kg/injection, schedule: Q08DX002 (oral), vehicle: Klucel (hydroxypropylcellulose) (HPC)): 106 % of control
- T/C (dose: 256.0 mg/kg/injection, schedule: Q01DX001 (ip), vehicle: other): 105 % of control
- T/C (dose: 256.0 mg/kg/injection, schedule: Q01DX001 (oral), vehicle: Klucel (hydroxypropylcellulose) (HPC)): 101 % of control
- T/C (dose: 256.0 mg/kg/injection, schedule: Q01DX009 (oral), vehicle: Klucel (hydroxypropylcellulose) (HPC)): 116 % of control
- T/C (dose: 256.0 mg/kg/injection, schedule: Q01DX009 (sc), vehicle: Klucel (hydroxypropylcellulose) (HPC)): 91 % of control
- T/C (dose: 256.0 mg/kg/injection, schedule: Q04DX003 (ip), vehicle: Klucel (hydroxypropylcellulose) (HPC)): 168 % of control
- T/C (dose: 256.0 mg/kg/injection, schedule: Q04DX003 (ip), vehicle: other): 109 % of control
- T/C (dose: 256.0 mg/kg/injection, schedule: Q04DX003 (oral), vehicle: Klucel (hydroxypropylcellulose) (HPC)): 107 % of control
- T/C (dose: 256.0 mg/kg/injection, schedule: Q04DX003 (oral), vehicle: other): 95 % of control
- T/C (dose: 256.0 mg/kg/injection, schedule: Q04DX003 (sc), vehicle: Klucel (hydroxypropylcellulose) (HPC)): 122 % of control
- T/C (dose: 256.0 mg/kg/injection, schedule: Q08DX002 (ip), vehicle: other): 108 % of control
- T/C (dose: 256.0 mg/kg/injection, schedule: Q08DX002 (oral), vehicle: Klucel (hydroxypropylcellulose) (HPC)): 106 % of control
- T/C (dose: 512.0 mg/kg/injection, schedule: Q01DX001 (oral), vehicle: Klucel (hydroxypropylcellulose) (HPC)): 102 % of control
- T/C (dose: 512.0 mg/kg/injection, schedule: Q04DX003 (oral), vehicle: Klucel (hydroxypropylcellulose) (HPC)): 116 % of control
- T/C (dose: 512.0 mg/kg/injection, schedule: Q08DX002 (ip), vehicle: Klucel (hydroxypropylcellulose) (HPC)): 185 % of control
- T/C (dose: 512.0 mg/kg/injection, schedule: Q08DX002 (oral), vehicle: Klucel (hydroxypropylcellulose) (HPC)): 108 % of control
- T/C (dose: 1024.0 mg/kg/injection, schedule: Q01DX001 (oral), vehicle: Klucel (hydroxypropylcellulose) (HPC)): 101 % of control
- T/C (dose: 1024.0 mg/kg/injection, schedule: Q04DX003 (oral), vehicle: Klucel (hydroxypropylcellulose) (HPC)): 106 % of control
- T/C (dose: 1024.0 mg/kg/injection, schedule: Q04DX003 (sc), vehicle: Klucel (hydroxypropylcellulose) (HPC)): 123 % of control
- T/C (dose: 1024.0 mg/kg/injection, schedule: Q08DX002 (oral), vehicle: Klucel (hydroxypropylcellulose) (HPC)): 115 % of control
